Reference: patent US20210393553A1, “PHARMACEUTICAL COMBINATIONS FOR THE TREATMENT OF PAIN” (IMUNEKS FARMA ILAC SANAYI VE TICARET A.S., priority 2018, published 2021)
Where “and” joins values, the source holds several entries; their conditions need not be identical. Equal entries are not always repeated.

Legend:
[1] = test system: rats; test: Tail Flick test; assay type: in vivo
[2] = test system: female Albino Wistar rats; test: Hot plate test (heat induced pain model); assay type: in vivo

Compound	tail flick results (tail flicking reaction time) ([1]; 1 hour after oral administration by gavage, same dosages as hot plate study, average of 3 measurements)	hot plate test latency ([2]; 15 min after oral gavage, hot plate 52.5° C., group average of 7 rats, cut-off 20 seconds, doses per Table 2)	hot plate test latency ([2]; 30 min after oral gavage, hot plate 52.5° C., group average of 7 rats, cut-off 20 seconds, doses per Table 2)	hot plate test latency ([2]; 45 min after oral gavage, hot plate 52.5° C., group average of 7 rats, cut-off 20 seconds, doses per Table 2)	hot plate test latency ([2]; 60 min after oral gavage, hot plate 52.5° C., group average of 7 rats, cut-off 20 seconds, doses per Table 2)	analgesic effect in the hot plate test, in words ([2]; comparison between groups / versus placebo)	tail flick results (tail flicking reaction time) ([1]; rat, in vivo, po)	time of peak of activity in hot plate test ([2]; rat, in vivo)	hot plate test latency ([2]; rat, in vivo, po)
CC(C(=O)O)c1ccc(-c2ccccc2)c(F)c1 (stereo not drawn) [FBP, Flurbiprofen]	4.95 s	4.87 s	5.65 s	5.15 s	4.96 s	lowest analgesic effect compared to all the other groups except the placebo group	–	–	–
COc1cccc(C2(O)CCCCC2CN(C)C)c1 (stereo not drawn) [Tramadol]	–	–	–	–	–	–	5.81 s	30 min	5.49 s and 6.90 s and 6.03 s and 6.19 s
